Results on 91 compounds are retold here after a melting point compilation (Tetko et al.; mined from patent text by program, amines drawn as free bases though some values may be those of a salt).

The term melting point denotes the temperature, or range, at which the solid turns liquid. As to `CCCCc1nc2c(N)nc3ccccc3c2n1CCCCON=C(C)C`, the melting point lay in the range of 115 to 117 °C.

For the compound `COC(=O)c1ccc(-c2nc(C)no2)s1`, the melting point is 154 to 156 °C.

`CC(=NC#N)N[C@@H]1c2cc(C#N)ccc2OC(C)(C)[C@H]1OS(C)(=O)=O` (relative stereo) displayed a melting point of 202 to 204 °C.

Compound `O=c1[nH]c(N[N+](=O)[O-])ncc1Cc1ccncc1` had a melting point of 228 to 229 °C.

Regarding `CO[C@@H]1CCN2C(=O)N(c3ccc(C#N)c4ccccc34)C(=O)[C@H]12` (relative stereo), the melting point was in the range of 185 to 186 °C.

In turn, `CN(C)C=C1N=C(c2ccccc2Cl)c2cc(I)ccc2N(C)C1=O` gave a melting point of 182 to 184 °C.

Compound `Cc1cc(-c2nc3cc(OC(C)C)cc(OC(C)C)c3c(=O)[nH]2)cc(C)c1OCCN1CCCC1` displayed a melting point of 65 to 68 °C.

`CC(C)(C)C(=O)NCCc1ccc(O)c(O)c1` returned a melting point of 144 to 146 °C.

`C#Cc1cccc(C(=O)OCc2ccccc2)c1N` returned a melting point of 42 to 43 °C.

`N#Cc1ccc(-c2ccc(C#N)c(N)c2)cc1N` displayed a melting point of 243 °C.

`Cc1nc2c(N)nc3ccccc3c2n1CCOCCNC(=O)NC1CCCCC1` gave a melting point of 207 to 209 °C.

In turn, `OCC=Cc1ccc(Br)cc1F` yielded a melting point of 38 to 40 °C.

`Cc1cc(S)n2nc(S(=O)(=O)O)nc2n1` displayed a melting point of 254 to 256 °C.

`Cn1ccc2cc(-c3cc4nccnc4[nH]3)ccc21` gave a melting point of 260 to 265 °C.

Turning to `CCOC(=O)C1=C(C)NC(=O)N(C(=O)OCC)C1c1cccc([N+](=O)[O-])c1Cl` (stereo unspecified), the melting point fell in the range of 176 to 178 °C.

`Cc1c(C)c2c(c(C)c1N)CC(C)(CN1CCN(C(=O)c3ccc(Cl)cc3)CC1)O2` (stereo unspecified): the melting point fell in the range of 136 to 138 °C.

Consider `O=C(NC12CC3CC(CC1C3)C2)c1ccccc1C(c1ccc(O)cc1)c1ccc(O)cc1`, for which the melting point is 219 to 224 °C.

Compound `Cc1nc(N2CCCC2=O)sc1C(=O)NCc1ccccc1` yielded a melting point of 222 to 224 °C.

For the compound `Nc1ccccc1Cc1nc[nH]n1`, the melting point is 134 to 136 °C.

`C=CCOc1ccccc1OCC=Cc1ccc(OC)c(OC)c1` returned a melting point of 60 to 60.5 °C.

Regarding `CCOC(=O)Nc1nc(C)c(-c2nc3ccccc3c(=O)n2-c2ccc(C)cc2)s1`, the melting point was 220 to 222 °C.

Compound `CC(=O)c1c[nH]c(Cc2ccc(O)cc2)n1` came in with a melting point of 229 to 231 °C.

Turning to `COc1ccc(Cc2c(-c3ccc(OC(F)F)c(OC4CC4)c3)[nH]c3cn[nH]c(=O)c23)cn1`, the melting point lay within 220 to 221 °C.

Turning to `CCCCCCCCCCCc1nnc2n1-c1ccccc1C(c1ccc(Cl)cc1)NC2` (stereo unspecified), the melting point lay within 94 to 95 °C.

`O=[N+]([O-])c1ccc(Oc2c(Cl)cc(C(F)(F)F)cc2Cl)cc1SCc1ccccc1` had a melting point of 207 °C.

As for `COc1ccc2sc(C(N)=O)c(SCC(=O)O)c2c1`, the melting point fell in the range of 126 to 127 °C.

Regarding `Cc1cccc(NC(=O)NC2N=C(c3ccccc3F)c3ccccc3N(CC(=O)O)C2=O)c1` (racemic), the melting point was 167 to 169 °C.

The compound `CCNc1nc(CC)c(C(=O)c2ccc(N)c([N+](=O)[O-])c2)s1` gave a melting point of 210 to 212 °C.

The compound `Cc1cc(C=NNC(N)=S)ncc1N` yielded a melting point of 235 to 236 °C.

Regarding `CCCCCCCCCCNC(=O)Nc1ccccc1C(=O)NC1CCN(C(c2ccccc2)c2ccccc2)CC1`, the melting point was 204 to 206 °C.

`CC(Cc1ccc(OCC(N)=O)cc1)NCC(OCCO)c1ccc(O)cc1` (stereo unspecified): the melting point lay within 145 to 160 °C.

For the compound `Cc1cccc(COc2cccnc2N)c1F`, the melting point lay within 115 to 118 °C.

The compound `CCCCOc1ccc(S(=O)(=O)N2CCC(O)C2)cc1` (stereo unspecified) gave a melting point of 83 to 84 °C.

The compound `Clc1nccnc1OCCOc1cccc(Br)c1` had a melting point of 57 to 58 °C.

Regarding `O=C(NCCO)/C(=C/c1ccc(OC(F)(F)F)cc1)NC(=O)c1ccc(OCCCC(F)(F)F)cc1`, the melting point lay within 160 to 163 °C.

On to `O=C(O)c1ccc2c(Br)n[nH]c2c1`, for which the melting point is greater than 250 °C.

With `Nc1cc(C(F)(F)F)c([N+](=O)[O-])cc1C(=O)O`, the melting point stood at 237 °C.

For `CN1CCC(CNC(=O)c2ccc(-c3[nH]nc4c3C(=O)c3c(NC(=O)NN5CCOCC5)cccc3-4)s2)C1` (stereo unspecified), the melting point lay in the range of 151 to 153 °C.

`NC(=O)c1cc2cccc(N(CC3CC3)S(=O)(=O)c3cccs3)c2[nH]1` yielded a melting point of 229 to 231 °C.

Compound `Cc1cc(C2=NNC(C(N)=O)Cc3cc4c(cc32)OCO4)ccc1[N+](=O)[O-]` (stereo unspecified) displayed a melting point of 246 to 249 °C.

`CN1C(=S)N(c2ccc(C#N)c(C(F)(F)F)c2)C(=N)C1(C)C` returned a melting point of 173 to 174 °C.

For the compound `COc1ccc2c(Cc3c(Cl)cncc3Cl)nncc2c1`, the melting point is 173 to 175 °C.

In the case of `CCC1N=C(c2ccccc2Cl)c2cc(CCC(=O)OC)sc2NC1=O` (stereo unspecified), the melting point was 187 to 189 °C.

In turn, `Cc1ccc(NC(=O)C(C)(C)CCCOc2cc(C)ccc2C)c(C)c1` yielded a melting point of 80 to 82 °C.

In turn, `COc1cccc(C(F)(F)F)c1S(=O)(=O)Cl` gave a melting point of 86 to 88 °C.

Compound `CN1Cc2cccnc2C(N2CC[N+]([O-])(C(=O)Cc3ccncc3)CC2)c2ccc(Cl)cc21` (stereo unspecified) yielded a melting point of 115 to 118 °C.

Compound `COC(=O)CC1CCNC1` (stereo unspecified) came in with a melting point of 68.5 to 69.5 °C.

The compound `CC(=NNC(=O)C1CCC1)c1ccncc1` showed a melting point of 139 °C.

The compound `NC1CCc2ccccc2NC1=O` (stereo unspecified) came in with a melting point of 161 to 162 °C.

`N#Cc1ccc(-c2n[nH]c3c2Cc2ccccc2-3)cc1` displayed a melting point of 245 °C.

On to `CCn1c(-c2ccc(Cl)cc2)nn(C)c1=O`, for which the melting point was 73 to 75 °C.

In turn, `C=CCC1(CC=C)c2cc(N(c3ccccc3)c3ccccc3)ccc2-c2ccc(N(c3ccccc3)c3ccccc3)cc21` returned a melting point of 179 to 183 °C.

On to `CC1CCc2ncc(C(=O)NN)c(=O)n21` (stereo unspecified), for which the melting point lay within 136 to 137 °C.

Compound `CC(C)c1ccc(OCC(=O)N2C(=O)OC[C@H]2Cc2ccccc2)cc1` returned a melting point of 104 to 105 °C.

As for `COc1ccc2oc(C(O)Cc3ccccc3)cc2c1` (stereo unspecified), the melting point is 69 to 70 °C.

For the compound `Cc1ccc(SC2CC(=O)N2CC(=O)NCCCCCCc2ccc(Cl)cc2)cc1` (stereo unspecified), the melting point was in the range of 63 to 65 °C.

On to `CCCCCOc1cc(C(=O)O)cc(N)c1-c1ccccc1`, for which the melting point was 134 to 135 °C.

In turn, `Cn1nc(OCC(=O)c2ccc(F)cc2)c(-c2ccc(F)cc2)c1-c1ccc(S(C)(=O)=O)cc1` registered a melting point of 173 to 176 °C.

`CC(C)c1ccc(NCc2ccc(N(C)C)cc2)cc1` yielded a melting point of 71 to 73 °C.

Compound `BrCc1ccc(-c2nc3ccccn3n2)cc1` came in with a melting point of 196 °C.

On to `CSc1nnc2n1C=Cc1ccccc1C2c1ccccc1` (stereo unspecified), for which the melting point lay in the range of 169 to 170 °C.

For `Cc1c(Br)c(=O)n(C2CCCCC2)c(=O)n1N=Cc1ccc(Cl)c(Cl)c1`, the melting point was 188 to 189 °C.

For the compound `NS(=O)(=O)c1ccc2c(c1)C(=NO)CCC2`, the melting point lay in the range of 162 to 164 °C.

Compound `NCCCNc1nc2c(NCc3ccccc3)ncnc2n1C1OC(CO)C(O)C1O` (stereo unspecified) yielded a melting point of 72 to 76 °C.

Turning to `CCN(CC)C(=O)Oc1nc(-c2ccccc2)nc2ccccc12`, the melting point was determined as 54 °C.

Regarding `COC(=O)N(COc1ccc(Cl)cc1Cl)c1ccc(Cl)cc1`, the melting point lay in the range of 70 to 80 °C.

For the compound `CC1CCCN1c1nccc(Oc2ccc(NC(=O)c3cc(F)cc(N4CCCCC4)c3)c3ccccc23)n1` (stereo unspecified), the melting point was 93 to 94 °C.

Consider `N#Cc1ccc(C(=O)CNc2ccc(Br)cc2)cc1`, for which the melting point was 154 to 157 °C.

Compound `CC(=O)NC1=C(c2cccc(C(F)(F)F)c2)C(=O)OC1` registered a melting point of 140 °C.

Take `CCS(=O)(=O)Oc1cc2c(C)c(CCN3CCN(c4ccccc4OC)CC3)c(=O)oc2cc1OC`: the melting point lay within 148 to 150 °C.

`CCOC(=O)/C=C(C)/C=C/C=C(\C)C1=Cc2cc(C)cc(C)c2OC1` gave a melting point of 122 °C.

As for `O=c1[nH]nc(Cc2ccncn2)c2ccccc12`, the melting point is 204 to 206 °C.

Take `CCOC(=O)[C@H](CCc1ccccc1)N[C@@H](C)C(=O)N1N=C(C(C)(C)C)S[C@H]1C(=O)O`: the melting point was in the range of 165 to 168 °C.

For the compound `COc1ccc(C2=NN(c3ccc(C(=O)O)cc3)C(=O)C(C)(C)C2)cc1OC`, the melting point is 196 to 198 °C.

As to `Cc1nnc(N2N=C(c3ccc(Cl)cc3)c3cc4c(cc3C[C@H]2C)OCO4)s1`, the melting point was in the range of 105 to 108 °C.

`COC(=O)NC(Cc1ccccc1)C1CC(Cc2ccccc2)=NO1` (stereo unspecified) gave a melting point of 87 to 88.5 °C.

`OC1(c2ccccc2)CCN(CCC2Cc3ccccc3O2)CC1` (stereo unspecified): the melting point stood at 107 °C.

In the case of `c1cn(Cc2ccc(OCc3nnn[nH]3)cc2)cn1`, the melting point was in the range of 189 to 191 °C.

`O=[N+]([O-])/C=C/c1c2n(c3ccccc13)CCNCC2` gave a melting point of 225 to 226 °C.

Consider `CCNC(=O)N1CCCC(n2nnnc2-c2cc(-c3cc(C(C)C)ccc3OC)c(O)cc2O)C1` (stereo unspecified), for which the melting point was 223 to 226 °C.

`O=S(=O)(NCCN1CC(c2ccccc2)C(c2ccc(Cl)cc2)=N1)c1cccc(C(F)(F)F)c1` (stereo unspecified): the melting point is 94 to 96 °C.

With `CC1=CC(=O)C(=NNc2ccc(C#N)cc2)C(=O)O1`, the melting point stood at 300 °C.

`CCOC(=O)c1ccc(-c2cnc(-c3ccc(C(F)(F)F)cc3)s2)cc1` showed a melting point of 174 to 176 °C.

In turn, `CCCc1nc2ccnn2c(O)c1Cc1ccc(-c2ccccc2C(N)=O)cc1` showed a melting point of 264 °C.

`N=c1[nH]c2ccc(Cl)cc2c2nc(-c3ccc(Br)o3)nn12` displayed a melting point of 282 to 283 °C.

`OCc1ccc(OCc2ccc3ccccc3n2)nc1` yielded a melting point of 124 to 125 °C.

Regarding `CS(=O)(=O)OCCNc1ccc(Cl)cc1[N+](=O)[O-]`, the melting point lay within 108 to 109 °C.

In turn, `COc1ccccc1SCCC(=O)O` came in with a melting point of 91 to 91.5 °C.

`Cc1ccnc(Sc2nc(C)c(CC(=O)O)s2)c1C(=O)O` came in with a melting point of 208 to 210 °C.

In turn, `N#CCOC(=O)c1ccc([N+](=O)[O-])cc1` showed a melting point of 80 to 82 °C.

Compound `CCOc1ccc2c(c1)C(c1ccccc1Cl)C(=O)N2` (stereo unspecified) yielded a melting point of 176 to 180 °C.
